Measurements taken from patent US11045441B2, “Use of retinoic acid and analogs thereof to treat central neural apneas” (Wisconsin Alumni Research Foundation, priority 2015, dated 2021).

What was measured:
Type in all cases: in vivo
[1] = test system: phrenic and hypoglossal nerve activity; experiment: Protocol 2: central neural apnea model with concurrent hypoxia, rats pretreated with retinoic acid
Procedure: Respiratory-related activity was recorded from the left phrenic and hypoglossal nerves in urethane-anesthetized (1.7 g/kg), vagotomized, paralyzed and mechanically ventilated rats (see Strey et al., 2012 for details). Rats are slightly hyperventilated, so a small amount of inspired CO2 was delivered to achieve target, normal PCO2. A pre-study apneic threshold test was performed. The apneic threshold was determined by lowering arterial PCO2 until phrenic respiratory activity ceased. […] Following 15 min of stable phrenic and hypoglossal burst discharge, baseline phrenic and hypoglossal burst amplitudes and blood gases were measured. Rats were then subjected to one of the following protocols:
Protocol 2) Five (5) brief central neural apneas followed by a 25 sec ventilator apnea (nadir O2 saturation ˜70%) in rats pretreated with vehicle (“control”) or retinoic acid (see below for details). The results are depicted in FIGS. 2A, 2B, and 3.
Protocol 1 tests the hypothesis that retinoic acid is sufficient to elicit inactivity-induced respiratory motor facilitation. Protocol 2 tests the hypothesis that retinoic acid administration can circumvent hypoxia-induced constraints on inactivity-induced respiratory motor facilitation. Phrenic burst amplitude was recorded for up to 60 min following treatment, and an apneic threshold test was performed at the end of the protocol.
To model a central neural apnea in anesthetized rats, inflow of CO2 was ceased by stopcock valve to reduce arterial PCO2 below the apneic threshold. Following a 10 second period of no phrenic firing activity (signaling absent breaths) the ventilator was turned off for 25 seconds to model the hypoxia that would normally be experienced in a human. At the end of 25 seconds, the ventilator was turned back on and PaCO2 was restored. This experience was repeated five times, with five minutes separating each episode.

[2] = test system: apnea and hypopnea events; experiment: Chronic intermittent hypoxia (CIH) model, diaphragm EMG recording of apneic and hypoapneic events; conditions: rats; intraperitoneal 500 mcg/kg daily during 7 day CIH plus day 8 dose; FIG. 5
Description: Briefly, the experimental and control animals were placed in adjoining, identical chambers that were maintained at room temperature and were large enough to allow unimpeded movement. The fraction of inspired oxygen in each chamber was regulated by microprocessor-controlled miniature solenoids attached to each chamber by high-pressure tubing. For the CIH protocol, the chamber was flushed with 100% nitrogen for 30 sec followed by 30 sec of 100% O2 at a low flow rate. The time course of change in the fraction of inspired oxygen for the experimental chamber was determined using an oxygen analyzer (Sensormedics, Milan, Italy): a decline to a nadir of 6.5 to 7% oxygen, remaining at that level for 5 to 7 sec, and then gradually increasing to 21% over the next 30 sec during which oxygen flowed into the chamber. This cycle was repeated each minute over 8 daytime hours (8 to 9 am to 4 to 5 pm) for 7 days. Control rats were exposed to the same sequence of events as experimental rats, with the exception that room air was used instead of nitrogen and oxygen. […] The experimental animals were administered intra peritoneal trans-retinoic acid (500 mcg/kg) daily throughout the 7 day CIH exposure with an additional dose given the morning of diaphragm electromyography (EMG) recordings (day 8; total of 8 injections) […] and hypoapneic events were recorded via conventional diaphragm EMG measurements.

phrenic nerve activity = experiment: Protocol 1: intrathecal retinoic acid injections, phrenic nerve recording in anesthetized rats; conditions: three 10 μL intrathecal injections, 50 μM each, 60 min after final injection, vs vehicle control, FIGS. 1A, 1B
Procedure: Respiratory-related activity was recorded from the left phrenic and hypoglossal nerves in urethane-anesthetized (1.7 g/kg), vagotomized, paralyzed and mechanically ventilated rats (see Strey et al., 2012 for details). Rats are slightly hyperventilated, so a small amount of inspired CO2 was delivered to achieve target, normal PCO2. A pre-study apneic threshold test was performed. The apneic threshold was determined by lowering arterial PCO2 until phrenic respiratory activity ceased. […] Following 15 min of stable phrenic and hypoglossal burst discharge, baseline phrenic and hypoglossal burst amplitudes and blood gases were measured. Rats were then subjected to one of the following protocols: Protocol 1) Three (3) 10 μL intrathecal injections (50 μM each) of retinoic acid or three (3) 10 μL of vehicle (aCSF in 10% DMSO). […] Protocol 1 tests the hypothesis that retinoic acid is sufficient to elicit inactivity-induced respiratory motor facilitation. […] Phrenic burst amplitude was recorded for up to 60 min following treatment, and an apneic threshold test was performed at the end of the protocol.

CC1=C(/C=C/C(C)=C/C=C/C(C)=C/C(=O)O)C(C)(C)CCC1 [retinoic acid, all-trans retinoic acid]
CO2 apneic threshold ([1]; anesthetized rats, given before central neural apnea, 60 min post injection, vs control, FIG. 3): reduced the CO2 apneic threshold relative to a control groups
phrenic burst amplitude ([1]; anesthetized rats, intrathecal 10 μL, 50 μM before central neural apneas with hypoxia, 60 min after, FIG. 2A): significantly higher than pre-stimulation levels
hypoglossal burst amplitude ([1]; anesthetized rats, intrathecal 10 μL, 50 μM before central neural apneas with hypoxia, 60 min after, FIG. 2B): significantly higher than pre-stimulation levels
enhanced phrenic motor output following inactivity with concurrent hypoxia ([1]; pretreatment, intermittent inactivity with concurrent hypoxia, FIG. 4C): rescues then enhanced phrenic motor output
number of apnea and hypopnea events (diaphragm EMG) [2]: reduces the number of apnea and hypopnea events
phrenic nerve activity (phrenic motor output) as a percentage of baseline activity (phrenic nerve activity): persistently increases phrenic motor output
phrenic nerve activity (phrenic motor output) as a percentage of baseline activity (phrenic nerve activity; listed as trans-retinoic acid): significantly higher than control group
